Structures are written as SMILES. Entries after “also recorded” stand apart in the source; their conditions may differ. Where two headings read alike, the source gives them in different places. Where only a bound is given, the exact number is not on record here.

The target in series [1] is T1, soybean lipoxygenase-1 (LOX-1) (Glycine max, UniProt P08170).
T1 construct: purchased Sigma-Aldrich, Brazil
T1 sequence (P08170 1-839): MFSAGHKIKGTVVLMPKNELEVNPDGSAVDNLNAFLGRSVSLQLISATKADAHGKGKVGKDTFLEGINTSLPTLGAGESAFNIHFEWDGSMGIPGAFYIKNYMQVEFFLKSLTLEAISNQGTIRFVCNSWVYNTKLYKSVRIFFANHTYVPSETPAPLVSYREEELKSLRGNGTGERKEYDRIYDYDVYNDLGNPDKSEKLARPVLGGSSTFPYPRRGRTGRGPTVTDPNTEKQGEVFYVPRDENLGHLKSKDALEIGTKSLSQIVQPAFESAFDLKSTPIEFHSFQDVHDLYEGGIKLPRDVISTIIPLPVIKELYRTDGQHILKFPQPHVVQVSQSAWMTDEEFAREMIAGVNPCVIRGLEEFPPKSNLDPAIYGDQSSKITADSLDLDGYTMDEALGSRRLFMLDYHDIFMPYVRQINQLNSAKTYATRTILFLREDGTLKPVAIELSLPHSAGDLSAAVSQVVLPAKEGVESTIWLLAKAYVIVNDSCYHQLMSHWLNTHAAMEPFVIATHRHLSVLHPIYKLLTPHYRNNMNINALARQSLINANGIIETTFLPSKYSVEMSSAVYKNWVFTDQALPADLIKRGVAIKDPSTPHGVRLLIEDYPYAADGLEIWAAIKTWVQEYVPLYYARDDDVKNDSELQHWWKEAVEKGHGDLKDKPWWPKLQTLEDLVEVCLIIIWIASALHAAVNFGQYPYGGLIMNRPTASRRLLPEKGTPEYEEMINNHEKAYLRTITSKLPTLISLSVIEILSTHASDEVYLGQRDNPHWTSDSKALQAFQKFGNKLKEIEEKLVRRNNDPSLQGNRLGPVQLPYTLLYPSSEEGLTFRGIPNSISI
Nature of the series: LOX-1 inhibition, spectrophotometric assay of conjugated diene formed by linoleic acid oxidation. In kind it is biochemical. How it is done:
For the in vitro screening to identify the inhibitors of the enzymatic activity of LOX-1, a spectrophotometric assay was employed in order to measure the conjugated diene formed by linoleic acid oxidation. Soybean LOX-1, which converts linoleic acid to 13-hydroperoxylinoleic acid, is inhibited by NSAIDs in a qualitatively similar way to that of the rat mast cell line 5-LOX, and it may be used as a reliable screening target for this activity. The screening was performed with compounds from Brazilian biodiversity (NuBBEDB) and synthetic derivatives previously synthesized by using natural products as models. In this context, a variety of natural products were evaluated, such as triterpenes, chalcones, casearins, alkaloids, guanidines, and flavonoids.
(§1) The ability of chalcones 1–6 to act as LOX-1 inhibitors was evaluated according to a method from Ha et al. (2004). Initially, 2.910 mL Tris-HCl buffer ([…] (pH 8.0), Sigma-Aldrich, Brazil) was added to a quartz cuvette, followed by the addition of 25 μL LOX-1 (final concentration 1 μM, Sigma-Aldrich, Brazil) and 10 μL of the compounds tested (the final concentration ranged from 1 to 20 μM). The solution was incubated for 5 min at 25 °C. The reaction was started with the addition of linoleic acid (55 μL, 1 mM, Sigma-Aldrich, Brazil), and the LOX-1 activity was monitored at λ = 221 nm, pH 8.0, and 25 °C by an absorbance spectrophotometer in UV-Vis (Perkin Elmer Lambda 22, Waltham, MA, USA). For the determination of KM, varying substrate concentrations were used (linoleic acid, 13.7–91.7 µM) and 1 µM LOX-1. […] The spectrophotometric measurements at λ = 221 nm are associated with the conjugated double bonds formed from the linoleic acid substrate.

Series [2] addresses T2, LOX-1 (Glycine max, UniProt P08170).
T2 sequence (P08170 1-839): T1 sequence (P08170 1-839)
Nature of the series: Oxygen consumption by the catalytic activity of LOX (polarography, O2-selective electrode). Particulars: compound at 10 µM, 25 °C. In kind it is biochemical, soybean (Glycine max).
Source text: A polarography-based assay was used to evaluate the rate of the oxygen consumption during LOX-1 inhibition, during which oxygen consumption is associated with the formation of a hydroperoxyl group [28]. In order to evaluate the decrease in oxygen consumption upon LOX-1 inhibition by the prenyl chalcone 6, an O2-selective electrode coupled to an oxygen monitoring probe was employed. […] The oxygen consumption was monitored using an O2-selective electrode coupled to a YSI 5300 Oxygen Monitor (Yellow Springs, OH, USA) at 25 °C. The reactions were initiated by adding O2 (100 μM), followed by the addition of LOX (20 nM) in 0.1 M Phosphate buffered saline (PBS), with pH 7.4 at 25 °C and the compounds being tested [32].

The target of series [3] is T2, LOX-1. As to the kind of experiment: Enzyme kinetics, mechanism of LOX-1 inhibition. In kind it is biochemical, soybean (Glycine max). How it is done: as §1
For series [4] the following is noted: cited from earlier work.
[5] abbreviates: LOX-1 1 µM, linoleic acid substrate, pH 8.0, 25 °C, mean and standard deviation of three independent experiments, read-out: IC50 for the inhibition of lipoxygenase-1.

For the molecule `O=C(/C=C/c1ccccc1O)c1ccccc1` [Compound 1], the IC50 in series [1] (setting [5]) was over 50 µM.
The same measure, in the same setting: for `O=C(/C=C/c1cccc(O)c1)c1ccccc1` [Compound 2] the value was over 50 µM.
The molecule `O=C(/C=C/c1ccc(O)cc1)c1ccccc1` [Compound 3, (E)-4-hydroxychalcone] displayed an IC50 in series [1] of over 50 µM.
Take `CC(C)=CCOc1ccccc1/C=C/C(=O)c1ccccc1` [Compound 4, 2-O-prenyl chalcone]: the IC50 in series [1] (setting [5]) is over 50 µM.
As to `CC(C)=CCC/C(C)=C/COc1cccc(/C=C/C(=O)c2ccccc2)c1` [Compound 5, 3-O-geranyl chalcone], the IC50 in series [1] (setting [5]) stood at 11.8 ± 0.9 µM.
In the case of `CC(C)=CCC/C(C)=C/CC/C(C)=C/COc1ccccc1/C=C/C(=O)c1ccccc1` [Compound 6, (E)-2-O-farnesyl chalcone], the IC50 in series [1] (setting [5]) is 5.7 ± 0.8 µM. Also, in series [1] (ratio of IC50 values, versus compound 4), the “fold more potent in LOX-1 inhibition than 2-O-prenyl chalcone (4)” value is listed as over 10 fold. The “oxygen consumption during LOX-1 catalysis” value on LOX-1 [2] is recorded as “delay of the oxygen consumption; also recorded: lower rate of oxygen consumption”; at LOX-1 [2] (listed as (E)-2-O-farnesyl chalcone) it was “decreased the rate of oxygen consumption”. Also, the mechanism of inhibition entry at LOX-1 [3] (LOX-1, enzyme kinetics) was “competitive”. The affinity at LOX-1 [3] (increasing concentrations of 6 (5–10 µM), linoleic acid substrate) corresponds to a Ki of 7 µM.
As for `CC(Cc1ccc(O)c(O)c1)C(C)Cc1ccc(O)c(O)c1` (stereo not shown) [Nordihydroguaiaretic acid (NDGA), Nordihydroguaiaretic acid, reference compound], on LOX-1 [2], the “oxygen consumption during LOX-1 catalysis” value is “lower rate of oxygen consumption”. Besides, the “toxicity on long-term use” value in series [4] was “liver damage and kidney dysfunction”.

As a reminder, the IC50 is the midpoint of a concentration-inhibition curve. What is called Ki is a measure of affinity in units of concentration, obtained from inhibition or displacement. A low value points to a stronger hold on the target.

Source of the values: paper PMC8069166, “Identification of a Prenyl Chalcone as a Competitive Lipoxygenase Inhibitor: Screening, Biochemical Evaluation and Molecular Modeling Studies” (Molecules, 2021).
